Experimental data published in publication PMC10629462 (Molecular cell, 2023).

T1: CtSen1Hel-1878 (Chaetomium thermophilum, UniProt G0S163 1087-1878)
T1 sequence: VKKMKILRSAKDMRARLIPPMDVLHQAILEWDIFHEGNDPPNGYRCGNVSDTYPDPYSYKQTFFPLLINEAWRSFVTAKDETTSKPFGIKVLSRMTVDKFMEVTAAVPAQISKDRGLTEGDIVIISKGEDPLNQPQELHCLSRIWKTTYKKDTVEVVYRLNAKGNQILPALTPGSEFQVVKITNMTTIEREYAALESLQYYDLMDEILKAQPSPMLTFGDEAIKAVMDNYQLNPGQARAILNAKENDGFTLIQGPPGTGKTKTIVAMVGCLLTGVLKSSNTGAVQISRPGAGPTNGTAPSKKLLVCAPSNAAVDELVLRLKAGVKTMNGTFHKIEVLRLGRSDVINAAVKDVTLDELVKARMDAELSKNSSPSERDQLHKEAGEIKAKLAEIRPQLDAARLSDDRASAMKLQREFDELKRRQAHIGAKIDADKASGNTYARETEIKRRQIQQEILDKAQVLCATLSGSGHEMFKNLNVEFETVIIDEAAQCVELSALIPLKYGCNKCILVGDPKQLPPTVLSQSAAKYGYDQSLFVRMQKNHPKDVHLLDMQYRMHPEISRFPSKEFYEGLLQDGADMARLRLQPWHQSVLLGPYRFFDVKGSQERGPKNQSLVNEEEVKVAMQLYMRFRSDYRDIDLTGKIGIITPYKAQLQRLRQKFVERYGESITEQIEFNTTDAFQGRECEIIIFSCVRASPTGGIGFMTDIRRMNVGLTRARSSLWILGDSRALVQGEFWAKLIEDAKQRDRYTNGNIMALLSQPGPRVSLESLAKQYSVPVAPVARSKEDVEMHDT

B1: poly-U 15 nt (ssRNA)
RNA: UUUUUUUUUUUUUUU

Assays:
[1] = biological target: CtSen1^FL (Thermochaetoides thermophila, UniProt G0S163); assay: malachite green phosphate release ATPase assay; format: biochemical; conditions: 1 mM ATP, 2 mM MgCl2, pH 7.5, 37 °C, RNA-DNA Sub6 5 μM, 5 nM enzyme
[2] = biological target: T1, CtSen1Hel-1878; assay: X-ray crystallography

Chain of CtSen1^FL (G0S163 1-1993): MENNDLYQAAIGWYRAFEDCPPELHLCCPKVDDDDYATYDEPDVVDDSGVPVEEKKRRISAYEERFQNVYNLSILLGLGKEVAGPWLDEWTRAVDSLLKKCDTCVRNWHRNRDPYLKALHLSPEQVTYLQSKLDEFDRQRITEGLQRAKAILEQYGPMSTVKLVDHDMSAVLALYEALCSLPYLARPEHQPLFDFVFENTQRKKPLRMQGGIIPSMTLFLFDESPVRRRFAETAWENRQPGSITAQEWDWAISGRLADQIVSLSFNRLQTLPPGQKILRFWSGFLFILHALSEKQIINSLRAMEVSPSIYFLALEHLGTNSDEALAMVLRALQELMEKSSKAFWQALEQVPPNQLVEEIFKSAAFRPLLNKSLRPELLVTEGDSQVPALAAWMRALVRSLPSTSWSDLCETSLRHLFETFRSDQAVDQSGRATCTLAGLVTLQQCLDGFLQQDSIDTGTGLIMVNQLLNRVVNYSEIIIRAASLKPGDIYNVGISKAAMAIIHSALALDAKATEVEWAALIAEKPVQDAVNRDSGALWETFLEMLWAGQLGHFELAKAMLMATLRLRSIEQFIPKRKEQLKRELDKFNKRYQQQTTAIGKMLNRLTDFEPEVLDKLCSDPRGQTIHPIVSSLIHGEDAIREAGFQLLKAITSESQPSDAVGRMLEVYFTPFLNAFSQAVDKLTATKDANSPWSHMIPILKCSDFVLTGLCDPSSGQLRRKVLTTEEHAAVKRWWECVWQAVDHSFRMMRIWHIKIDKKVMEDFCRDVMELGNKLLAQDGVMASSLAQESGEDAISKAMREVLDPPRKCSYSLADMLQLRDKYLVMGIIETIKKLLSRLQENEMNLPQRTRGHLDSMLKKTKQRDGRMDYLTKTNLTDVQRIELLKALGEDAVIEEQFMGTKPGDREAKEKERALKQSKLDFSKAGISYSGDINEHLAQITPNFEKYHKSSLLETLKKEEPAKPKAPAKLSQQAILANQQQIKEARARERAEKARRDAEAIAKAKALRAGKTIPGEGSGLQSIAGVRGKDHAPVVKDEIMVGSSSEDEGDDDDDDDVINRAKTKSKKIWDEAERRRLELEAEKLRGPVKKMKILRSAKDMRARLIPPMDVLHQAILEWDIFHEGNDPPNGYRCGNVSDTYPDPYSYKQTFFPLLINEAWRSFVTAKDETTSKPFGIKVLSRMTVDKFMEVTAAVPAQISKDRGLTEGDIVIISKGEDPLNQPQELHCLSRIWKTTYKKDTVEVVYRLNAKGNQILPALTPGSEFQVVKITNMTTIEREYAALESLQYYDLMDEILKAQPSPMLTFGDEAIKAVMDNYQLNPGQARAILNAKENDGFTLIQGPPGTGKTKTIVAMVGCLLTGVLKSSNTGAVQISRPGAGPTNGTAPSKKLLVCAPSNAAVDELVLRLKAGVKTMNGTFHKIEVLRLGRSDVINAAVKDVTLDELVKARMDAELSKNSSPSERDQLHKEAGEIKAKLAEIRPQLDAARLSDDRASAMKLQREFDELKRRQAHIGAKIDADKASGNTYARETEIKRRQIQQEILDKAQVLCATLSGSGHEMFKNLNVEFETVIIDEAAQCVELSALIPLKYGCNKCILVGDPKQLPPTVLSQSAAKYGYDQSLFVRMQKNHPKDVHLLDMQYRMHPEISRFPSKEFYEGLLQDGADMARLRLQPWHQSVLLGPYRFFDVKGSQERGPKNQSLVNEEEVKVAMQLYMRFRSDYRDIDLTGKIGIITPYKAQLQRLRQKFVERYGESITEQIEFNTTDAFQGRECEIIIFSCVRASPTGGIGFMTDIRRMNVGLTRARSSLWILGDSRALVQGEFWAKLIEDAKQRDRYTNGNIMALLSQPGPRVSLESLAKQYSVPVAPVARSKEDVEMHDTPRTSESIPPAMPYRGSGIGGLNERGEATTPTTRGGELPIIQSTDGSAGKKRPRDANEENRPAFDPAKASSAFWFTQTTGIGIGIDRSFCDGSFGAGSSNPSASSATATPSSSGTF

Molecule	malachite green phosphate release ATPase assay [1]	binding result [2]
Nc1ncnc2c1ncn2[C@@H]1O[C@H](COP(=O)(O)OP(=O)(O)OP(=O)(O)O)[C@@H](O)[C@H]1O [ATP]	Substrate stimulated ATP hydrolysis of mutant Sen1 proteins was monitored in a phosphate release assay	–
B1	–	binds
